Legend:
[1] = Chemical characteristics of composition A′, concentrated and diluted forms; format: physicochemical
Method: Several tests were conducted to determine the chemical characteristics of composition A′, both in concentrated and diluted forms. […] All liquid nanodomain droplets range in size from 5 to 20 nm. The pH of both the concentrate and diluted formulations is between 6.0 and 7.5.

[2] = rat, 120 mg/kg dose; cited from earlier work

SMILES: C=C(C)[C@@H]1CCC(C)=C[C@H]1c1c(O)cc(CCCCC)cc1O [CBD, 2-(1R,6R)-3-methyl-6-prop-1-en-2-ylcyclohex-2-en-1-yl-5-pentylbenzene-1,3-diol]
- logP [1]: 6
- Association of CBD with formulation phases during storage ([1]; both concentrated and diluted forms of composition A′): remained associated with the surfactant and lipid phases
- T1/2 [2]: 4 to 5 h
